According to patent US4943636A, “Certain pyridyl-di-sulfide-alkylenecarbonxylate-ortho-nitro-phenylsulfonic acid esters useful for coupling biological materials” (Cetus Corporation, priority 1987, dated 1990):
Read-outs that look alike come from different tables or passages of the source.

Tests used:
[1] = prior-art agents; cited from earlier work
[2] = system: bovine serum albumin (BSA); settings: for Percent Ester Remaining in Solution: pH 7.5, room temperature
Protocol: (§1) About 0.5 mg of the purified mal-sac HNSA ester from Example 1A was dissolved in 1 ml of distilled water.
The difference between the post-base and initial free HNSA concentration represents the concentration of ester. From the actual concentration of ester the amount of ester to be added to the protein solution to achieve the desired degree of substitution can be calculated.
A total of 22 mg ([…]) of BSA (of molecular weight 66,296) was dissolved in 2.0 ml of 0.01 M phosphate buffer at pH 7.5 to yield a total amino concentration of 1.0×10^-2 moles per liter (assuming 59 lysines/BSA molecule). […] The reaction was carried out at room temperature. […]

streptavidin = system: streptavidin; design: species or system Streptomyces avidinii
Protocol: A total of 0.26 mg (4.3×10^-3 μmoles) of streptavidin purified from Streptomyces avidinii by the method of Hoffman et al., PNAS, 77, 4666-4668 (1980) was dissolved in 1.0 ml of phosphate buffered saline at pH 7.4 to yield a total amine concentration of 6.93×10^-5 M (16 NH2 /streptavidin). […] Good separation was achieved between the protein and the excess HNSA and unreacted HNSA ester. […] In this case […] of the amino groups on streptavidin (12.9 out of 16.0) reacted.

biotinylated polylysine = settings: over a 30 minute period; pH 7.4
Protocol: Biotinylated polylysine (0.6 ml; 73,000 D average mol. wt.) was adjusted to pH 7.4 with 0.015 ml of 2.5 N NaOH. Approximately 5 mg of mal-sac-HNSA was added to the biotinylated polylysine and stirred at room temperature. Ten μl aliquots were removed from the mixture at timed intervals and diluted into 1.0 ml of 0.01 M phosphate buffer at pH 7.0. The spectrum of each diluted aliquot was measured and the absorbance at 406 nm recorded. A total of 50 μl of 4.8 N NaOH solution was then added to each aliquot, mixed, and the spectrum retaken.
After 30 minutes of incubation time, the reaction was stopped using a Sephadex G-25 column, and the high molecular weight (biotin)4 -polylysine-(sac-mal)18 was well separated from excess HNSA and unreacted mal-sac-HNSA.

[3] = Solubility in water / physical properties; format: physicochemical
Stability in water = format: physicochemical; settings: no nucleophiles added
Storage stability = format: physicochemical; settings: purified ester, stored desiccated
[4] = Hydrolysis of ester by sodium hydroxide; format: physicochemical; settings: 4.8 N sodium hydroxide added, pH 7.0 phosphate buffer aliquot
Protocol: as §1

avidin = settings: for Percent Ester Remaining: room temperature
Protocol: A total of 220 μl of an aqueous solution of 4.65 mg of avidin per ml of solution (27 amino groups per avidin molecule) was charged to a siliconized glass tube with a stir bar. Approximately 1.5 mg of the mal-sac HNSA ester of Example 1A (of 88.5% purity), calculated from the data of Example 2A, was added and the mixture stirred at room temperature. Ten μl aliquots of the mixture were removed and added to 1.0 ml of 10 mM phosphate buffer at pH 7.0 at timed intervals. The spectrum of each aliquot was taken and then 50 μl of 4.8 N NaOH solution was added to each aliquot and the spectrum was retaken.

[5] = system: Horseradish Peroxidase (HRP); settings: over a 30 minute period; pH 7.0
Protocol: A total of 40 mg (1.0 μmoles) of HRP (Sigma Chemical Co.) was dissolved in 0.5 ml of 0.1 M phosphate buffer at pH 7.0 to yield an amine concentration of 3.7×10^-3 M. Then, 5 mg (1.1×10^-5 moles) of the mal-sac HNSA ester of Example 1A, calculated from the data in Example 2A, was dissolved in 0.5 ml of the HRP solution. The mixture was stirred at room temperature. Five μl aliquots were removed from the incubating solution at timed intervals and were each diluted into 1.0 ml of 0.01 M sodium phosphate buffer at pH 7.0. The spectrum of each diluted aliguot was recorded and the absorbance at 406 nm measured. A total of 50 μl of 4.8 N NaOH was then added to each aliquot, each aliquot was mixed and its spectrum retaken and the absorbance at 406 nm measured. Because HRP has an absorbance at 406 nm due to its heme group and this absorbance changes after addition of sodium hydroxide, corrections for the absorbances due to the HRP were made on every dilution.
After 30 minutes the reaction was stopped using a Sephadex G-25 column as described in Example 2A. Fractions were collected and measured for absorbance at 406 nm and 280 nm.

bovine serum albumin = settings: pH 8.5; compared with same ester of N-hydroxysuccinimide; cited from earlier work
[6] = system: sheep red blood cells (SRBC); assay: Labelling of sheep red blood cells, cytofluorometry; format: cell-based; settings: excitation at 360 nm
Protocol: Dansyl-sac-HNSA ester was prepared as described in Example 1A using molar equivalents of HNSA, dicyclohexylcarbodiimide and dansyl-ε-aminocaproic acid (from Sigma Chemicals). For use in coupling to sheep red blood cells (SRBC) the dansyl-sac-HNSA ester (50 mg) was prepared in 7 ml of 0.28 M cacodylate buffer, pH 6.9.
Sheep red blood cells were washed 4 times (400×g, 8 minutes) in G-PBS buffer (5% α-D-glucose w/v in PBSCa-Mg). To 1 ml of packed red blood cells was added the 7 ml of dansyl-sac-HNSA ester dropwise with gentle mixing for 10 minutes at room temperature. The reaction was done in foil-wrapped glassware to protect against photodecomposition. Following the reaction the cells were washed in cold G-PBS buffer containing 1% heat inactivated (56° C., 30 minutes) FCS (fetal calf serum) until the supernatants were colorless (a minimum of 4 washes).
The dansyl-sac-HNSA labelled SRBC were monitored using a Coulter EPICS V Cytofluorometer immediately after labeling and at 24 hours. […] This translates to an increase in intensity 720 times over unlabeled cells.

cells = settings: reacted with fluoresceinated avidin; compared with biotin-p-nitrophenyl ester; cited from earlier work
[7] = pH 7.4; cited from earlier work

Compound: O=C(CCSSc1ccccn1)ON1C(=O)CCC1=O [SPDP, N-succinimidyl-3-(2-pyridyldithio)propionate]
- water solubility [1]: lack of water solubility

Compound: O=C(CCCCCN1C(=O)C=CC1=O)Oc1ccc(S(=O)(=O)O)cc1[N+](=O)[O-] [mal-sac-HNSA, N-maleimido-6-aminocaproyl-HNSA]
- Concentration of Ester ([2]; 0 minutes): 0.000156 mol/L
- Percent Ester Remaining in Solution ([2]; 0 minutes): 94.0%
- Concentration of Ester ([2]; 5 minutes): 0.000116 mol/L
- Percent Ester Remaining in Solution ([2]; 5 minutes): 82.9%
- Concentration of Ester ([2]; 9 minutes): 0.000103 mol/L
- Percent Ester Remaining in Solution ([2]; 9 minutes): 78.3%
- Concentration of Ester ([2]; 14 minutes): 0.000111 mol/L
- Percent Ester Remaining in Solution ([2]; 14 minutes): 74.5%
- ester reacted ([2]; 15 minutes): 0.0026 mol/L
- ε-amino groups of BSA substituted ([2]; 15 minutes, of 59 ε-amino groups): 25.9%
- Concentration of HNSA ([2]; With NaOH, 0 minutes): 0.000166 mol/L
- Concentration of HNSA ([2]; With NaOH, 5 minutes): 0.00014 mol/L
- Concentration of HNSA ([2]; With NaOH, 9 minutes): 0.000132 mol/L
- Concentration of HNSA ([2]; With NaOH, 14 minutes): 0.000149 mol/L
- Concentration of HNSA ([2]; Without NaOH, 0 minutes): 1.03e-05 mol/L
- Concentration of HNSA ([2]; Without NaOH, 5 minutes): 2.44e-05 mol/L
- Concentration of HNSA ([2]; Without NaOH, 9 minutes): 2.87e-05 mol/L
- Concentration of HNSA ([2]; Without NaOH, 14 minutes): 3.77e-05 mol/L
- reaction rate ([2]; over a 15 minute period): essentially linear
- amino groups on streptavidin reacted (streptavidin; 20 minutes): 79%
- number of amino groups on streptavidin reacted (streptavidin; 20 minutes, out of 16.0): 12.9
- reaction rate (streptavidin; over the period measured, pH 7.4): essentially linear
- reaction rate (biotinylated polylysine): essentially linear
- solubility in water [3]: dissolve fully in water
- stability in water (Stability in water): stable in water for several hours
- storage stability (Storage stability): stable for extended periods
- hydrolysis by hydroxide [4]: rapidly hydrolyzed
- Percent Ester Remaining (avidin; 0 minutes): 89%
- Percent Ester Remaining (avidin; 5 minutes): 86%
- Percent Ester Remaining (avidin; 20 minutes): 78%
- amino groups of avidin reacted (avidin; 30 minutes, 27 amino groups per avidin molecule): 13.5 amino groups
- Percent Ester Remaining (avidin; 30 minutes): 73%
- reaction rate (avidin; FIG. 3): linear
- reaction rate [5]: essentially linear

Compound: O=C(CCCCCNc1ccc([N+](=O)[O-])cc1[N+](=O)[O-])Oc1ccc(S(=O)(=O)O)cc1[N+](=O)[O-] [N-2,4-dinitrophenyl-6-aminocaproic acid ester of HNSA]
- efficiency in conjugating to bovine serum albumin (bovine serum albumin): more efficient

Compound: CN(C)c1cccc2c(S(=O)(=O)NCCCCCC(=O)Oc3ccc(S(=O)(=O)O)cc3[N+](=O)[O-])cccc12 [dansyl-sac-HNSA]
- increase in intensity over unlabeled cells [6]: 720 times

Compound: O=C1N[C@H]2[C@H](CS[C@H]2CCCCC(=O)Oc2ccc(S(=O)(=O)O)cc2[N+](=O)[O-])N1 [biotin-HNSA]
- amino groups of the polylysine polypeptide reacted (polylysine; 7 minutes): 28%
- reaction rate (polylysine; over a 5 minute period, pH 7.4): essentially linear
- physical properties relative to mal-sac HNSA ester [3]: essentially the same physical properties
- increase in fluorescence of treated cells (cells): much larger increase in fluorescence

Compound: O=C(CCSSc1ccccn1)Oc1ccc(S(=O)(=O)O)cc1[N+](=O)[O-] [3-(2-pyridyldithio)propionyl-HNSA, 3-(2-pyridyldithio)propionyl-HNSA ester]
- physical properties relative to mal-sac HNSA ester [3]: essentially the same properties

Compound: O=C(CNC(=O)OCc1ccccc1)Oc1ccc(S(=O)(=O)O)cc1[N+](=O)[O-] [Z-gly-HNSA, N-benzyloxycarbonyl-gly-HNSA]
- rate of aminolysis by glycine relative to hydrolysis rate [7]: considerably higher than its hydrolysis rate

Compound: mal-sac-BSA: product of the first reaction of mal-sac-HNSA ester with bovine serum albumin
- mal-sac groups per molecule ([2]; 15 minutes): 16 mal-sac groups per molecule
